The text below walks through data of patent US12180207B2 (ARRAY BIOPHARMA INC., priority 2018, dated 2024).

The term IC50 denotes the concentration that gives 50% inhibition.

Assay [1] deals with recombinant human FGFR1 catalytic domain (amino acids 308-731) (Homo sapiens (Human), UniProt P11362). The experiment in a line: FGFR1 enzyme activity assay (LanthaScreen TR-FRET). It is filed as biochemical. The note with it: 20 min incubation at 22° C., average of multiple determinations if made, read-out: FGFR1 Enz FRET IC50. An outline of the steps:
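His-tagged FGFR1 kinase domain with 100 nM Alexa Fluor 647-poly-GT peptide and ATP in pH 7.5 HEPES/MgCl2 buffer with 2% DMSO, 20 min at 22 °C. Quenched with EDTA plus 2 nM Eu-PY20 antibody and read after 60 min. IC50 comes from a 4-parameter fit of percent of control.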
(In general: Time-resolved FRET reads energy transfer from a long-lived donor to a nearby acceptor.)

Assay [2] deals with recombinant human FGFR3 (amino acids R397-T806) (Homo sapiens (Human), UniProt P22607). The experiment in a line: FGFR3 enzyme activity assay (LanthaScreen TR-FRET). The format is biochemical. The note with it: 25 μM ATP, 10 min incubation at 22° C., average of multiple determinations if made, read-out: FGFR3 Enz FRET IC50. An outline of the steps: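 GST-HIS6-tagged human FGFR3 (R397-T806) was reacted with 100 nM Alexa Fluor 647-Poly-GT substrate and 25 μM ATP plus compound in HEPES/MgCl2/Triton buffer, pH 7.5, 2% DMSO, for 10 min at 22 °C.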
Sequence of recombinant human FGFR3 (amino acids R397-T806) (P22607 397-806): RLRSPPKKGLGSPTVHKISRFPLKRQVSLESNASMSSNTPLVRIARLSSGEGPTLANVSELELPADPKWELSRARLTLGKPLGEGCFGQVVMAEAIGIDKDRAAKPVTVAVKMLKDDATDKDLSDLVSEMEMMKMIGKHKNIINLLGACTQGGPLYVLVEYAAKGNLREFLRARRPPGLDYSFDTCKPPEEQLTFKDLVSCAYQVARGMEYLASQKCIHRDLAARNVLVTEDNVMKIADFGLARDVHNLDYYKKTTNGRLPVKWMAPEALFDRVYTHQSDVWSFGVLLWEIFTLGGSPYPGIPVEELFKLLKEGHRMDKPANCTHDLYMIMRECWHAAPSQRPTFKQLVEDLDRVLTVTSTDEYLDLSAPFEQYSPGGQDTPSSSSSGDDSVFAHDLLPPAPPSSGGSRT

Assay [3] concerns the target T1, HEK-293 cells transfected with dox-inducible human wild type FGFR3 (Homo sapiens (Human), UniProt P22607). The experiment in a line: FGFR3 pFGFR cell assay (ELISA). It is filed as cell-based. Particulars: HEK-293 dox-inducible FGFR3, 1 hour compound, 100 ng/ml FGF-acidic. As for the experimental part:
FGFR3 pFGFR Cell Assay: • HEK-293 cells transfected with dox-inducible human wild type FGFR3 (SEQ ID NO: 5) were plated in a collagen or poly-D-lysine coated 96 well flat bottom plates at 4×10^5 cells/well in complete DMEM medium containing 10% FBS and 1 μg/ml doxycycline and allowed to attach for 24 h at 37° C., 5% CO2. Cells were treated with compound using 1:3 serial dilutions with a top final concentration of 5 μM. Compound was incubated on cells for 1 hour at 37° C., 5% CO2. Cells were then stimulated with a final concentration of 100 ng/ml human FGF-acidic for 5 minutes at 37° C., 5% CO2. Medium was removed and cells were lysed with lysis buffer containing phosphatase and protease inhibitors. Phospho FGFR3 was measured by ELISA (R&D Systems cat DYC2719). The ELISA captures total FGFR3 and detects total phospho tyrosine. Optical density was measured for each well using a Versamax reader at a wavelength of 450 nm. 100 POC was determined using no test compounds and 0 POC was determined using a control compound. The POC values were fit to a 4-parameter logistic curve as a function of the concentration of the compound, and the IC50 value is the point where the curve crosses 50 POC.
Background: An ELISA detects its analyte on a solid surface through an enzyme-linked reagent.

In assay [4] the target is T1, HEK-293 cells transfected with dox-inducible human wild type FGFR3. The experiment in a line: FGFR3 pERK cell assay. It is filed as cell-based. Particulars: HEK-293 dox-inducible FGFR3, 1 hour compound, 100 ng/ml FGF-acidic; maximum concentration 5 μM. An outline of the steps: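 Doxycycline-induced cells preincubated 1 h at 37 °C with compound (1:3 dilutions, top 5 μM final), then stimulated 5 min with 100 ng/ml FGF-acidic. Lysate phospho-ERK1/2 measured by MSD sandwich assay; IC50 at 50 POC from 4-parameter fit, normalised to no-compound and control-compound wells.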

Molecules are shown by their SMILES.

T1 sequence (P22607 23-806): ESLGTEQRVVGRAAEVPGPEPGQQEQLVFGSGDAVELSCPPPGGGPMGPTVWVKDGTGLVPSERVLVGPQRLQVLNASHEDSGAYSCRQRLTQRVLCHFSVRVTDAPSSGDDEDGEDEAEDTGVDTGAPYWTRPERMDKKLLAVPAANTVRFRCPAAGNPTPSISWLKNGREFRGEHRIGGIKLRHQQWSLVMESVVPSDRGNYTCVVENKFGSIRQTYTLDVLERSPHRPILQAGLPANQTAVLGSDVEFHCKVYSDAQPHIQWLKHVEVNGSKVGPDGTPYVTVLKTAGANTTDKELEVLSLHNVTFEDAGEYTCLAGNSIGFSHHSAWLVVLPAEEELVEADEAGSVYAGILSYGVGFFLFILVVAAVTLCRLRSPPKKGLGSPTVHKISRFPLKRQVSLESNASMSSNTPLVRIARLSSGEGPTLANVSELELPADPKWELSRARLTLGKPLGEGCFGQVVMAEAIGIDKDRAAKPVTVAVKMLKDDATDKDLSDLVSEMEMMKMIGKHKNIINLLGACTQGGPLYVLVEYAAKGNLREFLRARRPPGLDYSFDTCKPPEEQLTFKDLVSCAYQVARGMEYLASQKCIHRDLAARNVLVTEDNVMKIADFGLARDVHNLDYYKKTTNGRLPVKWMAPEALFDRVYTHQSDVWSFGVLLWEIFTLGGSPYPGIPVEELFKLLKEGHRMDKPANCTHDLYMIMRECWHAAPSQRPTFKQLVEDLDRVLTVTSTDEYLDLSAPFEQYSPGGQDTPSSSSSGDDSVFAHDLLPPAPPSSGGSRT
Sequence of recombinant human FGFR1 catalytic domain (amino acids 308-731) (P11362 other isoform, or with tags, fused parts or gaps): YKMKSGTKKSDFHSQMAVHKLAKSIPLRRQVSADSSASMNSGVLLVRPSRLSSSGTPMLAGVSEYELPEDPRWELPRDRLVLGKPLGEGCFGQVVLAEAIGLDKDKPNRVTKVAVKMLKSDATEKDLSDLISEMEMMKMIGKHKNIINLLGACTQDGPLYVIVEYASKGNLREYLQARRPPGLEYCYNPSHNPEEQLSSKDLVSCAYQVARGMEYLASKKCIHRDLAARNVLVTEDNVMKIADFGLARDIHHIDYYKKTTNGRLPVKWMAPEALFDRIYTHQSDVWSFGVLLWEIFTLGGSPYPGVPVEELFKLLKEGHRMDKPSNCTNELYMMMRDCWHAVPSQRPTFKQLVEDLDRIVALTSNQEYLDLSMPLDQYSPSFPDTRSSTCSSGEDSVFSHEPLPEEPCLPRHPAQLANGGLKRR

For the compound `C=CC(=O)N1CC2(CCN(C(=O)N3CCC(n4cc(-c5cc(OC)c6c(C#N)cnn6c5)cn4)CC3)CC2)C1` [Example 6, 6-(1-(1-(2-acryloyl-2,7-diazaspiro[3.5]nonane-7-carbonyl)piperidin-4-yl)-1H-pyrazol-4-yl)-4-methoxypyrazolo[1,5-a]pyridine-3-carbonitrile], the results for the IC50 in assay [1], in assay [2] and in assay [3] were 10 nM, 4 nM and 72 nM, respectively.
On the same counts, the results for `C=CC(=O)N1C[C@H]2CN(C(=O)N3CCC(n4cc(-c5cc(OC)c6c(C#N)cnn6c5)cn4)CC3)C[C@H]21` [Example 7, 6-(1-(1-((1S,5S)-6-acryloyl-3,6-diazabicyclo[3.2.0]heptane-3-carbonyl)piperidin-4-yl)-1H-pyrazol-4-yl)-4-methoxypyrazolo[1,5-a]pyridine-3-carbonitrile] are 18 nM, 2 nM and 110 nM.
On to `C=CC(=O)N1CC2(CCN(C(=O)N3CCC(n4cc(-c5cc(OC)c6c(C#N)cnn6c5)cn4)CC3)C2)C1` [Example 8, 6-(1-(1-(2-acryloyl-2,6-diazaspiro[3.4]octane-6-carbonyl)piperidin-4-yl)-1H-pyrazol-4-yl)-4-methoxypyrazolo[1,5-a]pyridine-3-carbonitrile], for which the IC50 in assay [1] was determined as 18 nM; in assay [2], 3 nM; in assay [3], 149 nM.
For `C=CC(=O)Nc1ccc(CN2CCC(n3cc(-c4cc(OC)c5c(C#N)cnn5c4)cn3)CC2)cc1` [Example 9, N-(4-((4-(4-(3-cyano-4-methoxypyrazolo[1,5-a]pyridin-6-yl)-1H-pyrazol-1-yl)piperidin-1-yl)methyl)phenyl)acrylamide] the same measures were 32 nM, 4 nM and 28 nM.
On the same counts, the results for `C=CC(=O)N(C)c1ccc(CN2CCC(n3cc(-c4cc(OC)c5c(C#N)cnn5c4)cn3)CC2)cc1` [Example 10, N-(4-((4-(4-(3-cyano-4-methoxypyrazolo[1,5-a]pyridin-6-yl)-1H-pyrazol-1-yl)piperidin-1-yl)methyl)phenyl)-N-methylacrylamide] are 34 nM, 6 nM and 38 nM.
For `C=CC(=O)N1CCC(F)(C(=O)N2CCC(n3cc(-c4cc(OC)c5c(C#N)cnn5c4)cn3)CC2)CC1` [Example 13, 6-(1-(1-(1-acryloyl-4-fluoropiperidine-4-carbonyl)piperidin-4-yl)-1H-pyrazol-4-yl)-4-methoxypyrazolo[1,5-a]pyridine-3-carbonitrile] the same measures were 10 nM, 3 nM and 39 nM.
Consider `C=CC(=O)N1CC(C(=O)N2CCC(n3cnc(-c4cc(OC)c5c(C#N)cnn5c4)c3)CC2)C1` [Example 98, 6-(1-(1-(1-acryloylazetidine-3-carbonyl)piperidin-4-yl)-1H-imidazol-4-yl)-4-methoxypyrazolo[1,5-a]pyridine-3-carbonitrile], for which the IC50 in assay [1] is 22 nM; in assay [2], 9 nM; in assay [3] it was 1130 nM.
In the case of `C=CC(=O)N1CC(C(=O)N2CCC(c3ccc(-c4cc(OC)c5c(C#N)cnn5c4)cc3)CC2)C1` [Example 101, 6-(4-(1-(1-acryloylazetidine-3-carbonyl)piperidin-4-yl)phenyl)-4-methoxypyrazolo[1,5-a]pyridine-3-carbonitrile], the IC50 in assay [1] is 13 nM; in assay [2], 4 nM; in assay [3], 69 nM.
For `C=CC(=O)N1CC(C)(C(=O)N2CCC(n3cc(-c4cc(OC)c5c(Cl)cnn5c4)cn3)CC2)C1` [Example 123, 1-(3-(4-(4-(3-chloro-4-methoxypyrazolo[1,5-a]pyridin-6-yl)-1H-pyrazol-1-yl)piperidine-1-carbonyl)-3-methylazetidin-1-yl)prop-2-en-1-one] the same measures were 40 nM, 8 nM and 57 nM.
On the same counts, the results for `C=CC(=O)N1CC(OC)(C(=O)N2CCC(n3cc(-c4cc(OC)c5c(Cl)cnn5c4)cn3)CC2)C1` [Example 124, 1-(3-(4-(4-(3-chloro-4-methoxypyrazolo[1,5-a]pyridin-6-yl)-1H-pyrazol-1-yl)piperidine-1-carbonyl)-3-methoxyazetidin-1-yl)prop-2-en-1-one] are 38 nM, 8 nM and 24 nM.
For `C=CC(=O)N1CC(C(=O)N2CCC(n3cc(-c4cc(OC5CCC5)c5c(C#N)cnn5c4)cn3)CC2)C1` [Example 125, 6-(1-(1-(1-acryloylazetidine-3-carbonyl)piperidin-4-yl)-1H-pyrazol-4-yl)-4-cyclobutoxypyrazolo[1,5-a]pyridine-3-carbonitrile] the same measures were 4 nM, 3 nM and 9 nM.
Regarding `C=CC(=O)N1CC(C(=O)N2CCC(n3cc(-c4cc(OCC)c5c(C#N)cnn5c4)cn3)CC2)C1` [Example 126, 6-(1-(1-(1-acryloylazetidine-3-carbonyl)piperidin-4-yl)-1H-pyrazol-4-yl)-4-ethoxypyrazolo[1,5-a]pyridine-3-carbonitrile], the IC50 in assay [1] was 13 nM; in assay [2] it was 5 nM; in assay [3], 20 nM.
`COc1cc(-c2cnn(C3CCN(C(=O)C4CN(C(=O)/C=C/CCl)C4)CC3)c2)cn2ncc(C#N)c12` [Example 181, (E)-6-(1-(1-(1-(4-chlorobut-2-enoyl)azetidine-3-carbonyl)piperidin-4-yl)-1H-pyrazol-4-yl)-4-methoxypyrazolo[1,5-a]pyridine-3-carbonitrile]: the IC50 in assay [1] turned out to be 9 nM; in assay [2] it was 2 nM; in assay [4], 34 nM.
For `COc1cc(-c2cnn(C3CCN(C(=O)C4CN(C(=O)/C=C/CN5CC[C@H](F)C5)C4)CC3)c2)cn2ncc(C#N)c12` [Example 182, (S,E)-6-(1-(1-(1-(4-(3-fluoropyrrolidin-1-yl)but-2-enoyl)azetidine-3-carbonyl)piperidin-4-yl)-1H-pyrazol-4-yl)-4-methoxypyrazolo[1,5-a]pyridine-3-carbonitrile] the same measures were 12 nM, 3 nM and 348 nM.
On the same counts, the results for `COc1cc(-c2cnn(C3CCN(C(=O)C4CN(C(=O)/C=C/CN5CC[C@@H](F)C5)C4)CC3)c2)cn2ncc(C#N)c12` [Example 183, (R,E)-6-(1-(1-(1-(4-(3-fluoropyrrolidin-1-yl)but-2-enoyl)azetidine-3-carbonyl)piperidin-4-yl)-1H-pyrazol-4-yl)-4-methoxypyrazolo[1,5-a]pyridine-3-carbonitrile] are 16 nM, 5 nM and 592 nM.
On the same counts, the results for `COc1cc(-c2cnn(C3CCN(C(=O)C4CN(C(=O)/C=C/CN5CCOCC5)C4)CC3)c2)cn2ncc(C#N)c12` [Example 184, (E)-4-methoxy-6-(1-(1-(1-(4-morpholinobut-2-enoyl)azetidine-3-carbonyl)piperidin-4-yl)-1H-pyrazol-4-yl)pyrazolo[1,5-a]pyridine-3-carbonitrile] are 15 nM, 6 nM and 2830 nM.
